Positions of bridges follow the written chain, without caps; N, C: chain ends. Non-standard residues stand in square brackets, D forms with d. Residues, ends and D or L forms follow the SMILES beside them.
Columns and labels:
[1] = biological target: human SSTR-5 (Homo sapiens, UniProt P35346); assay: Somatostatin receptor binding assay, [125I-Tyr11]somatostatin-14, membranes of transfected CHO-K1 cells; details: 0.05 nM [125I-Tyr11]somatostatin-14, 30 min at 30° C., Ki=IC50/[1+(LC/LEC)], read-out: Ki hSSTR-5
[2] = biological target: human SSTR-3 (Homo sapiens, UniProt P32745); assay: as above; details: 0.05 nM [125I-Tyr11]somatostatin-14, 30 min at 30° C., Ki=IC50/[1+(LC/LEC)], read-out: Ki hSSTR-3
Sequence of human SSTR-3 (P32745 whole entry): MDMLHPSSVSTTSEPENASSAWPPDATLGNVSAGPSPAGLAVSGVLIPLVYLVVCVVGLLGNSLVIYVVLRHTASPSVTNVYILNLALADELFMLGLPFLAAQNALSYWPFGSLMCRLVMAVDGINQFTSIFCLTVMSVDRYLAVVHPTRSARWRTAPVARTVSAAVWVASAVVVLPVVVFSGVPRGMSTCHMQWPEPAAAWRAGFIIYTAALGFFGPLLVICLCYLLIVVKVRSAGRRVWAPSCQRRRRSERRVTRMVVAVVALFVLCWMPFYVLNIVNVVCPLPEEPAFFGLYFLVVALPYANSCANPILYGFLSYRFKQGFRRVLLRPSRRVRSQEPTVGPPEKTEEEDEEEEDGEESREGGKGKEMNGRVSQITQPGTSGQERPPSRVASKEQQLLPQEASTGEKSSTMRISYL

Sequence of human SSTR-5 (P35346 whole entry): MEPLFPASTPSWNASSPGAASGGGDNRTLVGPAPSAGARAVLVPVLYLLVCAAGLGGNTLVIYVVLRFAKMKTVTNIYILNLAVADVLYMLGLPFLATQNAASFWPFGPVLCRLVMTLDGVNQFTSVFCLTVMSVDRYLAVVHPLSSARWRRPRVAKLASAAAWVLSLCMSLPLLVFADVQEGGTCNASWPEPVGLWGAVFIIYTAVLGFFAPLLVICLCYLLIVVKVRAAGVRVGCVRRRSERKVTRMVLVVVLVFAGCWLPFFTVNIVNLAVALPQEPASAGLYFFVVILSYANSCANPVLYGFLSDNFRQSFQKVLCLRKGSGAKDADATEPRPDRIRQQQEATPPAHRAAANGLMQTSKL

Ki [1]: 0.38 nM
Ki [2]: 62 nM
Compound: C[C@@H](O)[C@@H]1NC(=O)[C@H](CCCCN)NC(=O)[C@@H](Cc2c[nH]c3ccccc23)NC(=O)[C@H](Cc2ccccc2)NC(=O)[C@H](Cc2ccccc2)NC(=O)[C@@H](N)CSSC[C@@H](C(N)=O)NC(=O)[C@H](Cc2ccccc2)NC1=O [BIM-23268, H-Cys-Phe-Phe-D-Trp-Lys-Thr-Phe-Cys-NH2] (H-CFF[dW]KTFC-NH2; disulfide 1-8)
